This is an account of results in PMC6030077, “Dual role of HDAC10 in lysosomal exocytosis and DNA repair promotes neuroblastoma chemoresistance” (Scientific Reports, 2018).

The term EC50 denotes the concentration that produces a half-maximal response.

Entries after “also recorded” stand apart in the source; their conditions may differ.

For assay [1], the system named is BE(2)-C cells. The assay is described as follows: Flow cytometric analysis of LysoTracker DND-99 staining (lysosomal accumulation). The class given is cell-based, human. To be noted: for lysosomal accumulation (LysoTracker staining): 24 h, bufexamac 30 µM, tubastatin A 7.5 µM, tubacin 7.5 µM, VPA 1 mM, vacuolin-1 10 µM. As for the experimental part:
Six days after siRNA transfection or 24 h after treatment with HDAC or lysosomal inhibitors, cells were stained for 1 h with 50 nM LysoTracker® Red DND-99 in medium under standard cell culture conditions. Cells were washed with ice-cold RPMI w/o phenol-red and detached using Trypsin/EDTA for 3 minutes at 37 °C. Cells were centrifuged, resuspended in RPMI w/o phenol red and LysoTracker® Red fluorescence was quantified on a BD FACSCanto II platform using the PE filter setting.
On the technique in general: In flow cytometry, cells or beads pass a laser one at a time.

The subject of assay [2] is HDACs 1–3. The assay is described as follows: Western blot analysis of histone H3 acetylation. In kind it is cell-based, human. To be noted: 1 mM, 6 h. The procedure: Western blot analysis was performed as previously described. […] (b) Western blot analysis of histone H3 […] class IIb HDAC inhibitor tubastatin A, respectively. Numbers below blot indicate histone H3 acetylation normalized to total histone H3 expression and relative to DMSO treated control. Bands of indicated proteins were developed on the same blot. (c) Flow cytometric analysis of LysoTracker DND-99 staining in BE(2)-C cells 24h after treatment with class I HDAC inhibitor VPA and class IIb HDAC inhibitor tubastatin A. Statistical analyses were performed on non-normalized data using paired, two-tailed t-test (***p < 0.001; **0.001 ≤ p < 0.01; *0.01 ≤ p < 0.05). Error bars represent SEM. 3 (1 picture or pasted object on this page, not shown here)
Background: In western blotting, separated proteins are transferred to a membrane and probed.

For assay [3], the system named is BE(2)-C cells. The assay is described as follows: Cell viability, automated trypan blue exclusion, BE(2)-C. The class given is cell-based, human. To be noted: 100 ng/ml doxorubicin; for viability of BE(2)-C cells, single treatment: 7.5 µM tubastatin A or vacuolin-1 alone; for viability of BE(2)-C cells, combination with doxorubicin, 24 h, compared to doxorubicin alone: 10 µM verapamil or vacuolin-1. The procedure: Adherent cell lines were trypsinized and cells were pooled with corresponding supernatant, centrifuged and resuspended in 1.5 ml cell culture media. Cell viability was measured by automated trypan blue staining with the Vi-Cell XR Cell Viability Analyzer from Beckman Coulter (Krefeld, Germany).

Assay [4] has as its system BE(2)-C cells. As to the kind of experiment: Alkaline single cell gel electrophoresis assay (comet assay). The class given is cell-based, human. To be noted: 18 h, tubastatin A 7.5 µM or doxorubicin 100 ng/ml. As for the experimental part: BE(2)-C cells were treated with the HDAC6/10 inhibitor tubastatin A alone or in combination with the genotoxic drug doxorubicin (100 ng/ml doxorubicin, 7.5 µM tubastatin) for 18 h. Untreated cell aliquots and cells irradiated with 5 Gy (^137Cs radiation source, dose rate of 1 Gy min^−1) were used as negative and positive controls, respectively. Cells were subsequently analyzed by the alkaline comet assay as previously described[68],[69] with some modifications. In brief, the cells were mixed with 0.7% low-melting temperature agarose (Biozym), plated on two-well slides (Trevigen), and subsequently lysed overnight. Single cell electrophoresis was performed at 4 °C. Analysis of DNA damage was accomplished by fluorescence microscopy using a fully automated cell scanning system Metafer-4 (Metasystems) as described in[70]. DNA damage was assessed as “Tail DNA in %”. Statistical evaluation of two differently treated cell aliquots was performed with the Mann Whitney test using GraphPad Prism version 5.04 for Windows.

Assay [5] relates to BE(2)-C cells. The assay is described as follows: Flow cytometric quantification of intracellular doxorubicin accumulation, BE(2)-C. The class given is cell-based, human. As to conditions: for intracellular doxorubicin after co-treatment: 48 h, bufexamac 30 µM, tubastatin A 7.5 µM, tubacin 7.5 µM. The procedure: (§1) For flow cytometric quantification of intracellular doxorubicin after HDAC6/10 inhibition, BE(2)-C, SK-N-AS, IMR-32, HAP1 wild type and HDAC10 knockout cells were seeded in 6-well dishes at a density of 1.5 ∗ 10^5 cells/well (BE(2)-C and SK-N-AS, HAP1) and 3 ∗ 10^5 cells/well (IMR-32). Cells were treated with 25 ng/ml, 50 ng/ml, 100 ng/ml or 1 µg/ml doxorubicin, respectively, for 3–48 h (see respective figure legend). Where indicated, cells were co-treated with HDAC6/10 or lysosomal inhibitors. In case of co-treatment with vacuolin-1, vacuolin-1 was directly added to cells under doxorubicin treatment 1 h or 24 h prior to analysis. Flow cytometric quantification of intracellular doxorubicin after HDAC6, HDAC10 or P-glycoprotein knockdown in BE(2)-C cells was performed 5 days (P-glycoprotein) or 6 days (HDAC6/10) after transfection with siRNA. To that end, cells were seeded 3–4 days after transfection into 6-well dishes at 1.5 ∗ 10^5 cells per well and treated with 100 ng/ml doxorubicin +/− HDAC6/10 and lysosomal inhibitors for the last 24 h. After doxorubicin treatment, BE(2)-C, SK-N-AS, IMR-32 and HAP1 cells were washed with ice-cold RPMI w/o phenol-red and detached using Trypsin/EDTA for 3 minutes at 37 °C. Cells were centrifuged, resuspended in RPMI w/o phenol red and doxorubicin fluorescence was quantified on a BD FACSCanto II platform using the PE filter setting.

The test system of assay [6] is proliferating human fibroblasts. As to the kind of experiment: Flow cytometric analysis of cellular doxorubicin fluorescence, fibroblasts. To be noted: 100 ng/ml doxorubicin 48 h; tubastatin A 7.5 µM, vacuolin-1 10 µM, verapamil 10 µM. The class given is cell-based.
The test system of assay [7] is BE(2)-C cells. The assay is described as follows: Flow cytometric analysis of cell surface LAMP-1 (lysosomal exocytosis). As to conditions: 6 h tubastatin A 7.5 µM, bufexamac 30 µM, tubacin 7.5 µM, vacuolin-1 10 µM 1 h. In kind it is cell-based, human. As for the experimental part:
(§2) Cells were dissociated from dishes using non-enzymatic cell dissociation reagent for five minutes. Cells were counted using a ViCell XR automatic cell counter (Beckmann Coulter) and 2.5 ∗ 10^5 cells were transferred into a pre-cooled 96-well round bottom plate (TPP92097). Cells were stained for 1.5–2 hours on ice with primary anti P-gp (Biozol ABA-AB00143-1.1), LAMP-1 (H4A3, DHSB) antibody or isotype control (DLN-05794, Dianova, Barcelona, Spain) and for 1 hour with APC-labeled secondary antibody (Dianova 115-136-068). Cells were washed three times in FACS buffer (5% FBS in PBS) after each antibody incubation step. For evaluation of DNA double-strand breaks, cells were detached from dishes using trypsin, counted using a ViCell XR automatic cell counter (Beckmann Coulter) and transferred into a pre-cooled 96-well round bottom plate (4 ∗ 10^6 cells/well). Cells were fixed and permeabilized using the eBioscience^TM Foxp3/Transcription Factor Staining Buffer Set (Thermo Fisher Scientific). Cells were stained for 1.5 h with Phospho-Histone H2A.X (S139) primary antibody (CST #9718) and for 1 h in Alexa-488-labeled secondary antibody (ThermoFisher A-11008). Cells were washed three times in 1× permeabilization buffer after each antibody incubation step and fluorescence was quantified on a BD FACSCanto II platform.

The test system of assay [8] is P-glycoprotein. The assay is described as follows: Flow cytometric quantification of cell surface P-gp expression. The class given is cell-based, human. To be noted: BE(2)-C; 6 h tubastatin A 7.5 µM; vacuolin-1 10 µM 1 h. The procedure: as §2
Assay [9] deals with BE(2)-C cells. As to the kind of experiment: Pulse-chase analysis of doxorubicin secretion/retention. In kind it is cell-based, human. As to conditions: 12 h pre-treatment, 1 µg/ml doxorubicin 3 h, washout, relative to t0. As for the experimental part:
To test whether HDAC10 inhibition prolonged the retention of doxorubicin, we used a pulse-chase approach in which BE(2)-C cells were pre-treated over night with HDAC6/10 inhibitors and then loaded with high concentrations of doxorubicin for 3 h (1 µg/ml). After doxorubicin washout, HDAC6/10 or HDAC6 inhibitors were re-added (t0), and intracellular doxorubicin fluorescence was measured at t0, as well as 3 h (t3h) and 6 h (t6h) after doxorubicin removal (Fig. 5h–k). […] In summary, secretion of doxorubicin was slowed down in case of HDAC6/10 inhibition but not by specific HDAC6 inhibition alone.
as §1

The subject of assay [10] is BE(2)-C cells. As to the kind of experiment: Flow cytometric analysis of γH2A.X staining (DNA double-strand breaks). The class given is cell-based, human. To be noted: 24 h, tubastatin A 7.5 µM, vacuolin-1 10 µM; for DSBs (γH2A.X), treatment alone in the absence of doxorubicin: verapamil 10 µM. As for the experimental part:
as §2, with “Cells were stained for 1.5–2 hours on ice with primary anti P-gp (Biozol ABA-AB00143-1.1), LAMP-1 (H4A3, DHSB) antibody or isotype control (DLN-05794, Dianova, Barcelona, Spain) and for 1 hour with APC-labeled secondary antibody (Dianova 115-136-068).” left out, “Cells were stained for 1.5 h with Phospho-Histone H2A.X (S139) primary antibody (CST #9718) and for 1 h in Alexa-488-labeled secondary antibody (ThermoFisher A-11008).” left out

Assay [11] concerns HDAC6. The assay is described as follows: Western blot analysis of tubulin K40 acetylation as a marker for HDAC6 inhibition. In kind it is cell-based, human. To be noted: 24 h; bufexamac 30 µM, tubastatin A 7.5 µM, tubacin 7.5 µM. As for the experimental part:
Western blot analysis was performed as previously described. The following antibodies were used: anti-HDAC6 (sc-11420, Santa Cruz), anti-HDAC10 (H3413, Sigma), anti-acetylated histone H3 (06-911, Merck Millipore), anti-histone H3 (9715, Cell Signaling Technology, Cambridge UK), anti-LAMP-1 (H4A3, DHSB, Iowa City, IA, USA), anti-LAMP-2 (H4B4; Santa Cruz Biotechnology), anti-acetylated tubulin (6–11B-1; Sigma), anti-tubulin (2148, Cell Signaling Technology), anti P-glycoprotein (13978 S, Cell Signaling Technology) and anti-β-actin (clone AC-15; Sigma).

With `CCCC(CCC)C(=O)O` [VPA, valproic acid], the “lysosomal accumulation (LysoTracker staining)” value in assay [1] was “did not induce lysosomal accumulation”. Besides, in assay [2], the “inhibition of HDACs 1–3 (histone H3 acetylation)” value is on record as “substantially inhibiting HDACs 1–3”.

With `COc1cccc2c1C(=O)c1c(O)c3c(c(O)c1C2=O)C[C@@](O)(C(=O)CO)C[C@@H]3O[C@H]1C[C@H](N)[C@H](O)[C@H](C)O1` [doxorubicin], the “viability of BE(2)-C cells, single treatment” value in assay [3] is “did not substantially reduce cell viability”. For the same compound, in assay [4], the “DSBs in comet assays, single treatment” value is listed as “increased DSBs only trend-wise”.

As to `Ic1cccc(/C=N/Nc2nc(N3CCOCC3)nc(N(c3ccccc3)c3ccccc3)n2)c1` [vacuolin-1], the “lysosomal accumulation (LysoTracker staining)” value in assay [1] is recorded as “increased LysoTracker staining”. For the same compound, in assay [5] (100 ng/ml doxorubicin 48 h, 10 µM vacuolin-1), the “doxorubicin accumulation with lysosomal exocytosis inhibitor” value is listed as “promoted doxorubicin accumulation”. In assay [6], the “intracellular doxorubicin in fibroblasts” value is reported as “did not exhibit strongly increased intracellular doxorubicin”. The “cell surface LAMP-1 levels” value in [7] is given as “robustly reduced surface LAMP-1”. The “cell surface P-gp levels” value in assay [8] was “slightly increased surface P-gp levels”. Further, the “retention of intracellular doxorubicin 3 h and 6 h after doxorubicin removal” value (“retention” below) in [9] is given as “retained higher levels of intracellular doxorubicin”. In assay [3], the “viability of BE(2)-C cells, single treatment” value was “no substantial effect” and the “viability of BE(2)-C cells, combination with doxorubicin, 24 h, compared to doxorubicin alone” value was “strongly reduced cell viability”. In [10] (100 ng/ml doxorubicin), the “DSBs (γH2A.X), co-treatment with doxorubicin compared to doxorubicin alone” value is given as “increased doxorubicin induced DSBs”. Besides, the “DSBs (γH2A.X), treatment alone in the absence of doxorubicin” value in assay [10] is given as “did not induce DSBs on its own”.

With `COc1ccc(CCN(C)CCCC(C#N)(c2ccc(OC)c(OC)c2)C(C)C)cc1OC` (centres unmarked) [verapamil], in assay [5] (100 ng/ml doxorubicin 24 h, 10 µM verapamil), the “basal levels of doxorubicin in cells” value is “increased the basal levels of doxorubicin”. Also, the “intracellular doxorubicin in fibroblasts” value in [6] is “strongly increase doxorubicin accumulation”. For the same compound, the “viability of BE(2)-C cells, combination with doxorubicin, 48 h, compared to doxorubicin alone” value in assay [3] (10 µM verapamil) is reported as “not significant”. Moreover, the “viability of BE(2)-C cells, combination with doxorubicin, 24 h, compared to doxorubicin alone” value in [3] is given as “only slightly reduced cell viability”. Moreover, the “DSBs (γH2A.X), treatment alone in the absence of doxorubicin” value in assay [10] was “did not induce DSBs”.

Turning to `CN(C)Cc1c(C(=O)NCCOc2ccc(C(=O)NO)cc2)oc2ccccc12` [abexinostat], in assay [1] (24 h treatment), the “concentrations at which lysosomal accumulation is induced” value is at least 100 nM. In assay [1] (Homo sapiens, 24 h treatment, read-out: LysoTracker staining (lysosomal accumulation) EC50), the EC50 was determined as 183 nM. Also, the “concentrations at which intracellular doxorubicin amounts are increased” value in assay [5] (100 ng/ml doxorubicin, 24 h co-treatment) is “greater than or equal to 500 nM”.

`CCCCOc1ccc(CC(=O)NO)cc1` [bufexamac]: the “lysosomal accumulation (LysoTracker staining)” value in [1] is “caused lysosomal accumulation”. Moreover, the “HDAC6 inhibition (tubulin K40 acetylation)” value in assay [11] is on record as “substantially inhibited HDAC6; also recorded: lowest potency against HDAC6”. In addition, the “intracellular doxorubicin after co-treatment” value in assay [5] (100 ng/ml doxorubicin) is given as “increased intracellular doxorubicin”. Further, the “intracellular doxorubicin levels, short-term” value in [5] (12 h pre-treatment with inhibitor, then 1 µg/ml doxorubicin for 3 h) is reported as “increased intracellular doxorubicin levels”. The “cell surface LAMP-1 levels” value in assay [7] is “reduced surface LAMP-1 levels”. Also, the “retention” value in [9] is on record as “retained higher levels of intracellular doxorubicin”.

On to `O=C(CCCCCCC(=O)Nc1ccc([C@H]2O[C@@H](CSc3nc(-c4ccccc4)c(-c4ccccc4)o3)C[C@@H](c3ccc(CO)cc3)O2)cc1)NO` [tubacin], for which the “lysosomal accumulation (LysoTracker staining)” value in assay [1] is “did not”. The “HDAC6 inhibition (tubulin K40 acetylation)” value in assay [11] is on record as “substantially inhibited HDAC6”. The “intracellular doxorubicin after co-treatment” value in assay [5] (100 ng/ml doxorubicin) is listed as “did not alter cellular doxorubicin content”. Besides, the “retention” value in [9] is “had no effect”.
